Our source for the IC50 values is patent US11325938B2, “CD73 inhibitors” (ORIC Pharmaceuticals, Inc., priority 2018, dated 2022).

For the assay, the target named is CD73 (Homo sapiens (Human), UniProt P21589). Put plainly: Biochemical assay: inhibition of CD73 activity (AMP hydrolysis, Malachite Green readout). The note with it: CD73 0.3208 nM, AMP 15 μM, 25 mM Tris-HCl pH 7.4, RT, absorbance 620 nm. In a few lines: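 Human CD73 (320 pM final) preincubated 15 min at RT with compounds (10-point ½-log titration from 100 μM, duplicates) in 25 mM Tris-HCl pH 7.4, 5 mM MgCl2, 0.01% Brij-35, 0.01% BSA. 15 μM AMP added, 10 min at RT; released phosphate read by Malachite Green absorbance; IC50 determined.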

As usually defined, the IC50 is the concentration needed to halve the response being measured. Higher therefore signals weaker potency.

CD73, sequence (P21589 27-574): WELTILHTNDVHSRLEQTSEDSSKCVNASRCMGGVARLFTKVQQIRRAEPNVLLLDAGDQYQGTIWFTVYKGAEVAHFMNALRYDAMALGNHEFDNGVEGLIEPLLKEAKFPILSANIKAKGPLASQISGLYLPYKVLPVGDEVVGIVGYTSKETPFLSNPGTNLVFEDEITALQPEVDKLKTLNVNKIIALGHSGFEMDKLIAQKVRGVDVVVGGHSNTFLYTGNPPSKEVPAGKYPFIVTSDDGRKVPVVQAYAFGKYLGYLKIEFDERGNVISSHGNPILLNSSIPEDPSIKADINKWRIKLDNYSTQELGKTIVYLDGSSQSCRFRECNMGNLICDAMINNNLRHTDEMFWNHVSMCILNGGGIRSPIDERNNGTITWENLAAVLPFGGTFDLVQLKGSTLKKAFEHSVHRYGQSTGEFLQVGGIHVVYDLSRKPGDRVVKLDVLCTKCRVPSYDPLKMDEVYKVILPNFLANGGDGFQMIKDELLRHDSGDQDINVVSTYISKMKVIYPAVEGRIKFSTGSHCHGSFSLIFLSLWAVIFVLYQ

Compound `COCC(C)(OC[C@H]1O[C@@H](n2ncc3c(N[C@@H]4CCc5ccccc54)nc(Cl)nc32)[C@H](O)[C@@H]1O)P(=O)(O)O` (stereo partly drawn) [Example 77, (2-(((2R,3S,4R,5R)-5-(6-chloro-4-(((R)-2,3-dihydro-1H-inden-1-yl)amino)-1H-pyrazolo[3,4-d]pyrimidin-1-yl)-3,4-dihydroxytetrahydrofuran-2-yl)methoxy)-1-methoxypropan-2-yl)phosphonic acid] showed an IC50 not above 0.1 µM.
Compound `C[C@@H](O)COc1nc(NC2CCCC2)c2cnn([C@@H]3O[C@H](COC(CO)(CO)P(=O)(O)O)[C@@H](O)[C@H]3O)c2n1` (racemic) [Example 191, rac-(2-(((2R,3S,4R,5R)-5-(4-(cyclopentylamino)-6-((R)-2-hydroxypropoxy)-1H-pyrazolo[3,4-d]pyrimidin-1-yl)-3,4-dihydroxytetrahydrofuran-2-yl)methoxy)-1,3-dihydroxypropan-2-yl)phosphonic acid] showed an IC50 not above 0.1 µM.
`C[C@@](CO)(OC[C@H]1O[C@@H](n2ncc3c(NC4CCCC4)nc(CO)nc32)[C@H](O)[C@@H]1O)P(=O)(O)O` [Example 128, ((R)-2-(((2R,3S,4R,5R)-5-(4-(cyclopentylamino)-6-(hydroxymethyl)-1H-pyrazolo[3,4-d]pyrimidin-1-yl)-3,4-dihydroxytetrahydrofuran-2-yl)methoxy)-1-hydroxypropan-2-yl)phosphonic acid] registered an IC50 not above 0.1 µM.
In the case of `O=P(O)(O)C(CO)(COCC(F)(F)F)OC[C@H]1O[C@@H](n2ncc3c(NC4CCCC4)nc(Cl)nc32)[C@H](O)[C@@H]1O` (mixture of isomers) [Example 207, rac-(2-(((2R,3S,4R,5R)-5-(6-chloro-4-(cyclopentylamino)-1H-pyrazolo[3,4-d]pyrimidin-1-yl)-3,4-dihydroxytetrahydrofuran-2-yl)methoxy)-1-hydroxy-3-(2,2,2-trifluoroethoxy)propan-2-yl)phosphonic acid], the IC50 is not above 0.1 µM.
In turn, `O=P(O)(O)[C@](CO)(COCC1CC1)OC[C@H]1O[C@@H](n2ncc3c(NC4CCCC4)nc(Cl)nc32)[C@H](O)[C@@H]1O` (racemic) [Example 170, rac-((R)-2-(((2R,3S,4R,5R)-5-(6-chloro-4-(cyclopentylamino)-1H-pyrazolo[3,4-d]pyrimidin-1-yl)-3,4-dihydroxytetrahydrofuran-2-yl)methoxy)-1-(cyclopropylmethoxy)-3-hydroxypropan-2-yl)phosphonic acid] had a concentration for half-maximal inhibition (IC50) not above 0.1 µM.
For the compound `C[C@@](CO)(OC[C@H]1O[C@@H](n2ncc3c(NC4CCCC4)nc(C#CCO)nc32)[C@H](O)[C@@H]1O)P(=O)(O)O` (racemic) [Example 205, rac-((R)-2-(((2R,3S,4R,5R)-5-(4-(cyclopentylamino)-6-(3-hydroxyprop-1-yn-1-yl)-1H-pyrazolo[3,4-d]pyrimidin-1-yl)-3,4-dihydroxytetrahydrofuran-2-yl)methoxy)-1-hydroxypropan-2-yl)phosphonic acid], the 50% inhibitory concentration (IC50) is not above 0.1 µM.
With `CCOCC(CO)(OC[C@H]1O[C@@H](n2ncc3c(NC4CCCC4)nc(Cl)nc32)[C@H](O)[C@@H]1O)P(=O)(O)O` (mixture of isomers) [Example 169, rac-(2-(((2R,3S,4R,5R)-5-(6-chloro-4-(cyclopentylamino)-1H-pyrazolo[3,4-d]pyrimidin-1-yl)-3,4-dihydroxytetrahydrofuran-2-yl)methoxy)-1-ethoxy-3-hydroxypropan-2-yl)phosphonic acid], the IC50 was not above 0.1 µM.
`COCC(C)(OC[C@H]1O[C@@H](n2ncc3c(NC4CCC4)nc(Cl)nc32)[C@H](O)[C@@H]1O)P(=O)(O)O` (stereo partly drawn) [Example 159, (2-(((2R,3S,4R,5R)-5-(6-chloro-4-(cyclobutylamino)-1H-pyrazolo[3,4-d]pyrimidin-1-yl)-3,4-dihydroxytetrahydrofuran-2-yl)methoxy)-1-methoxypropan-2-yl)phosphonic acid] came in with an IC50 not above 0.1 µM.
As for `CC(CO)(OC[C@H]1O[C@@H](n2ncc3c(NC4CCCC4)cc(Cl)nc32)[C@H](O)[C@@H]1O)P(=O)(O)O` (stereo partly drawn) [Example 152, (2-(((2R,3S,4R,5R)-5-(6-chloro-4-(cyclopentylamino)-1H-pyrazolo[3,4-b]pyridin-1-yl)-3,4-dihydroxytetrahydrofuran-2-yl)methoxy)-1-hydroxypropan-2-yl)phosphonic acid], the IC50 is not above 0.1 µM.
In the case of `O=C(c1ccccc1)C(OC[C@H]1O[C@@H](n2ncc3c(NC4CCCC4)nc(Cl)nc32)[C@H](O)[C@@H]1O)P(=O)(O)O` (stereo partly drawn) [Example 41, (1-(((2R,3S,4R,5R)-5-(6-chloro-4-(cyclopentylamino)-1H-pyrazolo[3,4-d]pyrimidin-1-yl)-3,4-dihydroxytetrahydrofuran-2-yl)methoxy)-2-oxo-2-phenylethyl)phosphonic acid] it was 0.1 to 1 µM; in that of `COCC(OC[C@H]1O[C@@H](n2ncc3c(NC4CCCC4)nc(Cl)nc32)[C@H](O)[C@@H]1O)P(=O)(O)O` (stereo partly drawn) [Example 31, (1-(((2R,3S,4R,5R)-5-(6-chloro-4-(cyclopentylamino)-1H-pyrazolo[3,4-d]pyrimidin-1-yl)-3,4-dihydroxytetrahydrofuran-2-yl)methoxy)-2-methoxyethyl)phosphonic acid], not above 0.1 µM.
Compound `O=P(O)(O)CS(=O)(=O)C[C@H]1O[C@@H](n2nnc3c(N[C@@H]4CCc5ccccc54)cc(Cl)nc32)[C@H](O)[C@@H]1O` [Example 83] registered an IC50 not above 0.1 µM.
As for `O=P(O)(O)C(CO)(COCC(F)(F)F)OC[C@H]1O[C@@H](n2ncc3c(NC4CCCC4)nc(Cl)nc32)[C@H](O)[C@@H]1O` (stereo partly drawn) [Example 95, (2-(((2R,3S,4R,5R)-5-(6-chloro-4-(cyclopentylamino)-1H-pyrazolo[3,4-d]pyrimidin-1-yl)-3,4-dihydroxytetrahydrofuran-2-yl)methoxy)-1-hydroxy-3-(2,2,2-trifluoroethoxy)propan-2-yl)phosphonic acid], the IC50 was not above 0.1 µM.
Regarding `C[C@@](Cc1nn[nH]n1)(OC[C@H]1O[C@@H](n2ncc3c(NC4CCCC4)nc(Cl)nc32)[C@H](O)[C@@H]1O)P(=O)(O)O` [Example 119, ((R)-2-(((2R,3S,4R,5R)-5-(6-chloro-4-(cyclopentylamino)-1H-pyrazolo[3,4-d]pyrimidin-1-yl)-3,4-dihydroxytetrahydrofuran-2-yl)methoxy)-1-(2H-tetrazol-5-yl)propan-2-yl)phosphonic acid], the IC50 is not above 0.1 µM.
In the case of `CC(CO)(OC[C@H]1O[C@@H](n2nnc3c(NC4CCCC4)nc(Cl)nc32)[C@H](O)[C@@H]1O)P(=O)(O)O` (stereo partly drawn) [Example 67, (2-(((2R,3S,4R,5R)-5-(5-chloro-7-(cyclopentylamino)-3H-[1,2,3]triazolo[4,5-d]pyrimin-3-yl)-3,4-dihydroxytetrahydrofuran-2-yl)methoxy)-1-hydroxypropan-2-yl)phosphonic acid], the 50% inhibitory concentration (IC50) is not above 0.1 µM.
Compound `O=P(O)(O)C(CO)(Cc1nc[nH]n1)OC[C@H]1O[C@@H](n2ncc3c(NC4CCCC4)nc(Cl)nc32)[C@H](O)[C@@H]1O` (mixture of isomers) [Example 219, rac-(2-(((2R,3S,4R,5R)-5-(6-chloro-4-(cyclopentylamino)-1H-pyrazolo[3,4-d]pyrimidin-1-yl)-3,4-dihydroxytetrahydrofuran-2-yl)methoxy)-1-hydroxy-3-(1H-1,2,4-triazol-3-yl)propan-2-yl)phosphonic acid] registered an IC50 not above 0.1 µM.
